From patent US10617749B1, “Composition of matter and methods for alteration of dendritic cell metabolism to augment cancer vaccine efficacy” (Duke University, priority 2016, dated 2020)
“Also recorded” adds a separate entry of the source.

Key:
[1] = system: DC-induced CD4+ FoxP3+ Tregs; experiment: In vitro Treg assay; format: cell-based, mouse; details: for DC-mediated Treg differentiation in vitro: pre-treated DCs co-cultured with naïve CD4+ T cells
Protocol: In vivo Treg assay. DCs (C57, H-2^b) were pre-treated for 48 hours and delivered by intradermal injection into the footpad of Foxp3-mRFP mice. Draining inguinal and popliteal lymph nodes were resected 5 days later and analyzed for CD4^+ Foxp3^+ Tregs. In vitro Treg assay, DCs (Balb/c, H-2^d) were pre-treated for either 24 or 48 hrs, and re-plated at a 1:3 DC:T-cell ratio with purified naïve Foxp3-mRFP(H-2^b) CD4^+ Tcells. These co-cultures were incubated for 6 days and quantitated for CD4^+ FoxP3^+ Tregs by flow cytometry.
(§1) Murine bone marrow-derived DCs (BMDCs) were harvested and differentiated as previously described and purified using CD11c microbeads (Miltenyi Biotec) according to manufacturer's protocol. DC purity was monitored by flow cytometry and consistently found to be >95% CD11c+F4/80-. BRAFV600EPTEN−/−-Wnt5aKD and BRAFV600EPTEN−/−-NTC cell lines were generated and cultured as previously described. DC2.4, a murine dendritic cell line was kindly provided by Dr. Kenneth L. Rock (University of Massachusetts Medical School), and cultured as previously described. DC2.4β-cateninKD, DC2.4-CPT1AKD, and DC2.4-NTC stable cell lines were generated using a β-catenin-targeted, CPT1A-targeted, or control shRNA-expressing lentivirus followed by puromycin selection. DCs were treated with Wnt3a (100 ng/mL), Wnt5a (200 ng/mL), LPS (1 μg/mL), 1-MT, 2DG (1 mM), or ETO (100 µM) vs vehicle control either for 24 or 48 hrs prior to their use in both in vitro and in vivo experiments.

[2] = system: bone marrow-derived DCs (BMDCs); experiment: DC oxygen consumption rate (OCR) / OXPHOS, extracellular flux analysis; format: cell-based, murine; details: BMDCs treated with the agent alone vs untreated
Protocol: (§2) DC energy metabolism was measured using the XF^e24 extracellular flux analyzer (Seahorse Bioscience), with the glycolysis stress test kit and the mitochondrial stress test kit as previously described (Everts et al., 2014; Zhao and Klimecki, 2015).
as §1

[3] = system: bone marrow-derived DCs (BMDCs); experiment: DC glycolysis, extracellular acidification rate (ECAR); format: cell-based, murine; details: with or without LPS
Protocol: as §2, §1

murine DCs = experiment: qrt-PCR / ELISA gene and cytokine expression in murine DCs; format: cell-based
Protocol: Total RNA was isolated by RNeasy Plus Mini Kit(Qiagen). RNA(500 ng) was used in cDNA Synthesis (iScript, BioRad). Quantification of mRNA for genes involved in PPARγ signaling was performed using Mouse PrimePCR PPAR Array according to the manufacturer's protocol (BioRad). Real-time PCR was performed using an ABI7500 Real-Time PCR system (Life Technologies). Data analysis utilized the PrimePCR Analysis Software (BioRad). Conventional qPCR was performed using validated primers (Table 1) and SsoAdvanced Universal SYBR Green Super mix (BioRad) or Taqman probes (Applied Biosystems) for heme synthesis enzymes.
Murine IL-6 (eBioscience) and IL-12p40 (Becton Dickinson) ELISAs were performed according to manufacture's protocol.

DC intracellular PpIX = experiment: PpIX flow cytometry analysis; format: cell-based, mouse; details: 48 hours treatment, then 1 mM δ-ALA 4 hrs
Protocol: Dendritic cells were terminally incubated in the presence of 1 mM δ-aminolevulinic acid (ALA) for 4 hrs. Intracellular PpIX was analyzed by flow cytometry as previously described (Hryhorenko et al., 1998).

Row | Molecule | DC-mediated Treg differentiation in vitro [1] | DC OXPHOS (OCR) [2] | DC glycolysis (ECAR) [3] | also measured
1 | Cn1cc(CC(N)C(=O)O)c2ccccc21 (stereo not shown) [1-MT] | – | – | – | DC-dependent Treg differentiation promoted by melanoma-derived conditioned media ([1]; DCs with BRAFV600E-PTEN−/− conditioned media): only modestly suppressed
2 | O=CC[C@@H](O)[C@H](O)[C@H](O)CO [2-DG, 2-deoxyglucose] | enhancement of DC-dependent Treg expansion; also recorded: enhanced Treg differentiation | – | – | –
3 | NC(=O)c1ncn([C@@H]2O[C@H](CO)[C@@H](O)[C@H]2O)c1N [AICAR] | – | suppresses OXPHOS | – | –
4 | Oc1nc(-c2ccc(C(F)(F)F)cc2)nc2c1CSCC2 [XAV939] | – | – | promote DC glycolysis | –
5 | CC[C@H]1/C=C/C=C/C[C@@H](C)[C@H](O)[C@@](C)(O)C(=O)[C@@H](C)[C@H](O)[C@@H](C)C(=O)[C@@H](C)[C@H](O)[C@@H](C)/C=C/C(=O)O[C@@H]2[C@H](C)[C@H](CC1)O[C@]1(CC[C@H](C)[C@H](C[C@@H](C)O)O1)[C@H]2C [oligomycin] | potently suppressed Wnt5a induction of DC-mediated Treg differentiation; also recorded: almost complete elimination of these Treg populations | – | – | –
6 | Wnt3a: canonical Wnt ligand used to treat DCs (100 ng/mL) (protein, UniProt P56704 19-352, looked up) Protein Wnt-3a: SYPIWWSLAVGPQYSSLGSQPILCASIPGLVPKQLRFCRNYVEIMPSVAEGIKIGIQECQHQFRGRRWNCTTVHDSLAIFGPVLDKATRESAFVHAIASAGVAFAVTRSCAEGTAAICGCSSRHQGSPGKGWKWGGCSEDIEFGGMVSREFADARENRPDARSAMNRHNNEAGRQAIASHMHLKCKCHGLSGSCEVKTCWWSQPDFRAIGDFLKDKYDSASEMVVEKHRESRGWVETLRPRYTYFKVPTERDLVYYEASPNFCEPNPETGSFGTRDRTCNVSSHGIDGCDLLCCGRGHNARAERRREKCRCVFHWCCYVSCQECTRVYDVHTCK | – | no changes in either DC OXPHOS or glycosis | no changes in either DC OXPHOS or glycosis | PPAR-γ and CPT1A expression (murine DCs; murine primary DCs): failed to induce the expression of both PPAR-γ and CPT1A in DCs; expression of key glycolytic enzymes (phosphofructokinase, hexokinase, pyruvate kinase) (murine DCs; primary DCs, qrt-PCR): promotes the expression of key glycolytic enzymes; DC levels of PpIX (DC intracellular PpIX): failed to enhance PpIX synthesis in DCs
